Assay results taken from PubChem BioAssay (NCI).
Values joined by “and” are separate entries in the source; they are usually repeats but may differ in a detail not shown here. Identical values can stand only once.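 Values below derive from 48-hour exposures of cells grown in 96-well plates, with endpoints linearly interpolated between the two concentrations bracketing the appropriate inhibition level. GI50 = concentration required for 50% inhibition of growth. At the TGI there is no net growth.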

Assays:
Experiment in all cases: inhibition of tumour cell growth, NCI panel, 48 h
[1] = tested on: TK-10 renal
[2] = tested on: MCF7 breast
[3] = tested on: HCT-15 colon
[4] = tested on: UACC-62 melanoma
[5] = tested on: NCI/ADR-RES ovarian
[6] = tested on: HCT-116 colon
[7] = tested on: HS 578T breast
[8] = tested on: RXF 393 renal
[9] = tested on: SNB-19 CNS
[10] = tested on: SNB-75 CNS
[11] = tested on: A549 NSCLC
[12] = tested on: HOP-62 NSCLC
[13] = tested on: IGROV1 ovarian
[14] = tested on: NCI-H226 lung
[15] = tested on: HOP-92 NSCLC
[16] = tested on: MDA-N

SMILES	TGI [1] [µM]	TGI [2] [µM]	TGI [3] [µM]	TGI [4] [µM]	TGI [5] [µM]	TGI [6] [µM]	TGI [7] [µM]	TGI [8] [µM]	TGI [9]	TGI [10] [µM]	TGI [11] [µM]	TGI [12] [µM]	TGI [13] [µM]	TGI [14]	TGI [15] [µM]	TGI [16] [µM]	GI50 [15]	GI50 [8]	GI50 [9]	GI50 [14]
O=[N+]([O-])C(C(Cl)=C(Cl)Cl)=C(n1cncn1)n1cncn1	> 100	> 100	36.7	> 100	67	31.9	> 64.1	43.4	> 100 µM	> 65.3	> 100	> 100	39.7	> 100 µM	–	–	–	–	–	–
COc1ccc(CCN2C(=O)CC34C=CC(CC3C2=O)O4)cc1OC (stereo not drawn)	> 100	> 100	> 100	> 100	> 100	> 100	–	–	> 100 µM	–	> 100	> 100	> 100	–	> 100	> 100	–	–	–	–
C=CCn1c(=N)/c(=C(\N)O)s/c1=C1/SC(=S)N(c2ccc(C)cc2)C1=O	> 100	–	–	> 100	–	> 100	–	–	> 100 µM	44.6	> 100	–	> 100	> 100 µM	> 100	–	–	–	–	–
NS(=O)(=O)c1nnc(NS(=O)(=O)c2ccc([N+](=O)[O-])cc2)s1	> 100	> 100	> 100	> 100	> 100	> 100	–	> 100	–	> 100	> 100	> 100	> 100	> 100 µM	> 100	–	–	–	–	–
COC(=O)CC(C(C(C)=O)C(=O)OCc1ccccc1)N1C(=O)OC(c2ccccc2)C1c1ccccc1 (stereo not drawn)	> 100	–	> 100	> 100	–	> 100	–	> 100	91.7 µM and > 100 µM	–	> 100	> 100	> 100	80.7 µM and > 100 µM	> 100	–	84.5 µM and 39.8 µM	29.1 µM and 84.9 µM	10.5 µM and > 100 µM	12.2 µM and 77.5 µM
O=C(NCc1ccc2ccc3cccnc3c2n1)c1ccc[n+](Cc2ccccc2)c1	> 100	–	> 100	> 100	–	> 100	–	> 100	> 100 µM	> 100	> 100	> 100	> 100	> 100 µM	> 100	–	–	–	–	–
O=C1C(Cl)=C(NCCF)C(=O)c2ncccc21	3.65	3.54	4.87	2.68	–	3.51	4	3.24	2.99 µM	2.6	4.07	4.39	3.43	3.99 µM	–	0.392	–	–	–	–
Cc1ccc(/S(Cc2ccccc2)=N\S(=O)(=O)c2ccc(C)cc2)cc1 (stereo not drawn)	> 100	> 100	> 100	–	> 100	> 100	–	> 100	> 100 µM	–	> 100	> 100	–	> 100 µM	> 100	> 100	–	–	–	–
NC(N)=N/N=C/c1c(-c2cc([N+](=O)[O-])c(Cl)cc2Cl)nc2n1CCS2	45.9	–	> 100	97.1	> 100	> 100	> 100	> 100	16.5 µM	–	> 100	> 100	36.4	92.5 µM	61.6	–	–	–	–	–
CC[n+]1c(/C=C/c2ccc(N(CCCl)CCCl)cc2)ccc2cc(I)ccc21	9.04	–	28.1	1.68	–	–	–	3.77	2.35 µM	0.903	13.8	3.55	8.27	5.63 µM	2.13	–	–	–	–	–
CCn1c(CSc2nc(-c3ccccc3)c(-c3ccccc3)[nH]2)n[nH]c1=S	> 100	–	> 100	–	–	> 100	–	–	> 100 µM	> 100	> 100	> 100	> 100	> 100 µM	> 100	–	–	–	–	–
Cc1ccc(C2C(Cl)C(=O)N2NC(=O)c2ccc(N)cc2)cc1 (stereo not drawn)	> 100	–	29.9	31.4	–	28.3	–	–	33.5 µM	> 100	71.7	50.2	25.2	65.4 µM	28.5	–	–	–	–	–
COc1ccc(/C(Cl)=C(\C=O)c2ccc(Cl)cc2)cc1OC	31.1	–	> 100	39.9	–	33.3	–	20.7	> 100 µM	11.5	> 100	42.3	30.1	36.6 µM	–	–	–	–	–	–
COc1cc(OC)c(OC)cc1/C=C/c1cc[n+](C)c2ccccc12	> 100	> 100	> 100	–	> 100	> 100	–	> 100	> 100 µM	> 100	> 100	> 100	> 100	–	76.2	> 100	–	–	–	–
O=C1NC(=Nc2ccccc2)C(=Nc2ccccc2)N1c1ccccc1	30.8	–	28.2	25.3	30.6	32.3	42.9	29.2	31.4 µM	30.9	31	32.5	31	32 µM	30	25.6	–	–	–	–
C=C(C)C(=O)OC1C[C@H](COC(C)=O)C2CC=C(CO)C2C2OC(=O)C(=C)[C@H]12 (stereo partly drawn)	> 100	> 100	> 100	> 100	> 100	38.2	> 100	–	> 100 µM	> 100	> 100	> 100	> 100	> 100 µM	–	> 100	–	–	–	–
CCOC1CCN(C(=O)c2ccccc2)O1 (stereo not drawn)	> 10	> 10	> 10	–	> 10	> 10	> 10	> 10	> 10 µM	> 10	> 10	> 10	> 10	> 10 µM	–	> 10	–	–	–	–
